Assay results reported in PubChem BioAssay (NCI).
“And” between values parts separate entries of the source, which are not always exact repeats. Equal entries are not always repeated.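 Results reflect a 48-hour exposure of cells in 96-well plates to compound at five concentrations. The concentration for 50% growth inhibition is given as GI50. TGI denotes the concentration required for complete inhibition of growth.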

How the values were obtained:
Experiment in all cases: NCI-60 cell line screen, 48 h
NCI/ADR-RES ovarian = tested on: NCI/ADR-RES ovarian
OVCAR-3 ovarian = tested on: OVCAR-3 ovarian
SN12C renal = tested on: SN12C renal
HOP-62 NSCLC = tested on: HOP-62 NSCLC
OVCAR-5 ovarian = tested on: OVCAR-5 ovarian
RXF 393 renal = tested on: RXF 393 renal
T-47D breast = tested on: T-47D breast
LOX IMVI melanoma = tested on: LOX IMVI melanoma
OVCAR-8 ovarian = tested on: OVCAR-8 ovarian
HCC-2998 colon = tested on: HCC-2998 colon

Row | SMILES | TGI (NCI/ADR-RES ovarian) | GI50 (OVCAR-3 ovarian) [µM] | TGI (OVCAR-3 ovarian) | GI50 (SN12C renal) [µM] | TGI (SN12C renal) | GI50 (HOP-62 NSCLC) [µM] | TGI (HOP-62 NSCLC) | GI50 (OVCAR-5 ovarian) [µM] | TGI (OVCAR-5 ovarian) | GI50 (RXF 393 renal) [µM] | TGI (RXF 393 renal) | TGI (T-47D breast) [µM] | GI50 (LOX IMVI melanoma) [µM] | TGI (LOX IMVI melanoma) | GI50 (OVCAR-8 ovarian) [µM] | TGI (OVCAR-8 ovarian) [µM] | GI50 (HCC-2998 colon) [µM] | TGI (HCC-2998 colon) [µM] | GI50 (NCI/ADR-RES ovarian) [µM] | GI50 (T-47D breast) [µM]
1 | NC(=O)c1cc(N2CC2)c([N+](=O)[O-])cc1[N+](=O)[O-] | > 200 µM | > 200 | > 200 µM | > 200 | > 200 µM | > 200 | > 200 µM | > 200 | > 200 µM | > 200 | > 200 µM | > 200 | > 200 | > 200 µM | > 200 | > 200 | > 200 | > 200 |  | 
2 | Cc1ccc(S(=O)(=O)ON2C(=O)c3cccc4cc([N+](=O)[O-])cc(c34)C2=O)cc1 | > 100 µM |  | > 100 µM |  | > 100 µM |  | > 100 µM |  | > 100 µM |  | > 100 µM | > 100 |  | > 100 µM |  | > 100 |  | 58.9 |  | 
3 | CC(=O)O.CN1[CH-]N(Cc2ccc(C#N)cc2)c2ccccc21.[Ag+] | > 100 µM | 16.6 | 30.4 µM | 18.9 | 38.4 µM | 47.4 | > 100 µM | 58.4 | > 100 µM | 14 | 28.3 µM | 60.1 | 15.6 | 36.2 µM | 23.9 | 75.9 | > 100 | > 100 | > 100 | 14.8
4 | Cc1ccc(CNc2ccc3nc(CCC4CCCCC4)[nH]c3c2)cc1 | 9.51 µM | 3.06 | 11.4 µM | 2.77 | 11.4 µM | 2.08 | 4.83 µM | 2.52 | 8.18 µM | 2.06 | 5.38 µM | 8.5 | 1.74 | 3.19 µM | 3.21 | > 100 | 2.19 | 4.35 | 2.69 | 2.56
5 | O=C(O)Cc1cccc2c(=O)cc(-c3ccccc3)oc12 | 250 µM and > 1000 µM | 568 | 250 µM and > 1000 µM | 508 | 250 µM and > 964 µM |  | 250 µM and > 1000 µM | > 1000 | 250 µM and > 1000 µM | > 862 | 250 µM and > 1000 µM | > 1000 | 280 | 250 µM and > 909 µM | 84.5 | > 1000 | > 1000 | > 1000 | 194 | 690
6 | CCC(CC)n1cnc2c(-c3cnc(N)cn3)nc(N3CC4CCC(C3)O4)nc21 | > 33.5 µM | 0.5 | > 100 µM | 0.294 | > 100 µM | 1.08 | > 100 µM | 0.374 | > 100 µM | 0.153 | 1.6 µM | 0.217 | 0.428 | > 100 µM | 0.769 | > 100 | 0.465 | > 100 | 0.79 | 0.0233
7 | CCN1CCN(CCNc2nccc(-c3c(-c4ccc(F)c(O)c4)nc4occn34)n2)S1(=O)=O | > 100 µM | 4.44 | > 100 µM | 4.41 | > 100 µM | 5.97 | > 100 µM | > 100 | > 100 µM | 2.51 | > 100 µM | 24.6 | 3.76 | > 100 µM | 3.63 | > 100 | 6.19 | > 100 | 3.01 | 2.13
8 | COc1ccccc1C#Cc1ccccc1C#Cc1ccc(OCCCCCCOc2ccccc2C#Cc2ccccc2C#Cc2ccccc2OC)cc1 | > 100 µM | > 100 | > 100 µM | > 100 | > 100 µM | > 100 | > 100 µM | > 100 | > 100 µM | > 100 | > 100 µM | > 100 | > 100 | > 100 µM | > 100 | > 100 | > 100 | > 100 | > 100 | > 100
9 | O=S(=O)(N=C1C(Cl)=C(Cl)C(=NS(=O)(=O)c2ccccc2)C(Cl)=C1Cl)c1ccccc1 | > 100 µM | 9.53 | 26 µM | 29.9 | > 100 µM | 27.5 | 80.3 µM | 45.2 | > 100 µM | 15.8 | 30.9 µM | > 100 | 15.4 | 43.1 µM | 17.7 | 50.6 | 26.6 | 64.6 | 26.5 | 23.8
10 | O=C1C2CCN(CC2)C1CN1CCOCC1 (configuration not stated) | 3.41 µM |  | 4.18 µM |  | 8.28 µM |  | 34 µM |  | 13.5 µM |  | 5.33 µM | 3.93 |  | 12.1 µM |  | 13.6 |  | 29.2 |  | 
11 | CN(C)CCNc1ccc2ncn3c4ccc(O)cc4c(=O)c1c23 | 18.9 µM |  | 13.4 µM |  | 13.3 µM |  | 5.35 µM |  | 15 µM |  | 2.58 µM | 25 |  | 3.36 µM |  | 7.76 |  | 12.7 |  | 
12 | Cc1ccc2c(C(C[N+](=O)[O-])c3ccccc3)c(-c3ccccc3)[nH]c2c1 (configuration not stated) | > 95 µM | 16.3 | > 95 µM | 44.1 | > 95 µM | 34.2 | > 95 µM | 85.3 | > 95 µM | 10.5 | 81.3 µM | > 95 | 38.2 | > 95 µM | 33 | > 95 | 73.7 | > 95 | 14.2 | 26.4
